Laboratory results taken from patent publication US8058243B2, “Method for treating a brain cancer with ifenprodil” (HSC Research and Development Limited Partnership, priority 2006, dated 2011).
Read-outs that look alike come from different tables or passages of the source.

System: murine neural precursor cells (neurosphere cultures)
Test: HTS of LOPAC library against secondary neurosphere cultures, MTT proliferation assay at 3 μM, day 7 (z score, P value)
Format: cell-based, mouse
[1] = yes/no: significantly inhibited neurosphere proliferation in the primary screen
[2] = LOPAC library screen, 3 μM, MTT, neurosphere cultures
[3] = LOPAC screen, neurosphere MTT proliferation, 3 μM, day 7
[4] = yes/no: significantly inhibited neurosphere proliferation (P<0.01) in primary screen
[5] = LOPAC primary screen, neurosphere MTT proliferation, 3 μM, day 7
[6] = yes = significantly inhibited neurosphere proliferation (P<0.01) in the primary screen
[7] = yes/no: significantly inhibited neurosphere proliferation in primary screen
[8] = yes/no: significantly inhibited neurosphere proliferation (P<0.01) in the primary screen
[9] = LOPAC library screen at 3 μM, secondary neurosphere cultures, MTT
[10] = primary LOPAC screen, 3 μM, MTT, neurosphere proliferation
[11] = LOPAC library screen, 3 μM, MTT, secondary neurosphere cultures, day 7

| SMILES | Z Score (168 h, 3 µM) | Z score (168 h, 3 µM) | Z Score | Activity [4] | Z score [5] | other results |
| --- | --- | --- | --- | --- | --- | --- |
| Nn1nnc2ccccc21 [1-Aminobenzotriazole] | 0.5236 | 0.524 | – | – | – | Activity [1]: no |
| Cl.NC1(C(=O)O)CC1 [1-Aminocyclopropanecarboxylic acid hydrochloride] | – | – | −2.401 | – | – | Activity: yes; Z score: −2.401 |
| Cl.OC[C@H]1NC[C@H](O)[C@@H](O)[C@@H]1O [1-Deoxynojirimycin hydrochloride] | – | – | – | no | – | Z Score [2]: 1.242; Z score [3]: 1.242 |
| Cl.Cl.Cn1cnc(CCN)c1 [1-Methylbistamine dihydrochloride] | – | – | 0.3068 | – | – | – |
| Cl.Cl.Cn1cnc(CCN)c1 [1-Methylhistamine dihydrochloride] | – | – | – | – | 0.307 | Activity [6]: no |
| Cn1ccnc1 [1-Methylimidazole] | −0.8469 | −0.847 | – | – | – | Activity [6]: no |
| S=C(Nc1ccccc1)Nc1nccs1 [1-Phenyl-3-(2-thiazolyl)-2-thiourea] | 1.208 | 1.208 | – | – | – | Activity [7]: no |
| N=C(N)NC(=N)Nc1ccccc1 [1-Phenylbiguanide] | −2.689 | −2.689 | – | – | – | Activity [8]: yes |
| FC(F)(F)c1ccccc1-n1ccnc1 [1-[2-(Trifluoromethyl)phenyl]imidazole] | −0.1576 | −0.158 | – | – | – | Activity [7]: no |
| COc1ccc2c(c1)c(CC(=O)O)c(C)n2C(=O)c1ccccc1 [1-benzoyl-5-methoxy-2-methylindole-3-acetic acid] | – | – | – | – | – | Z Score [9]: −0.955; Z score [10]: −0.955; Activity [1]: no |
| c1ccc(-c2ccccn2)nc1 [2,2′-Bipyridyl] | – | – | 1.455 | no | – | Z score [3]: 1.455 |
| CC(=O)C(C)=NO [2,3-Butanedione monoxime] | −1.81 | −1.810 | – | – | – | Activity [1]: no |
| CC(=O)C(C)=O [2,3-Butanedione] | – | – | −1.642 | no | – | Z score [3]: −1.642 |
| COC1=C(OC)C(=O)c2ccccc2C1=O [2,3-Dimethoxy-1,4-naphthoquinone] | – | – | −10.4 | – | −10.398 | Activity [8]: yes |
| O=[N+]([O-])c1ccc(O[C@@H]2O[C@H](CO)[C@@H](O)[C@H](O)[C@H]2F)c([N+](=O)[O-])c1 [2,4-Dinitrophenyl 2-fluoro-2-deoxy-beta-D-glucopyranoside] | – | – | – | no | – | Z Score [2]: 0.772; Z score [3]: 0.772 |
| Nc1cc(=O)[nH]c(N)n1 [2,6-Diamino-4-pyrimidinone] | – | – | – | no | – | Z Score [9]: −1.072; Z score [3]: −1.072 |
| NC(=O)COc1c(F)cc(SCCNS(=O)(=O)c2ccccc2)cc1F [2,6-Difluoro-4-[2-(phenylsulfonylamino)ethylthio]phenoxyacetamide] | – | – | −0.4983 | – | −0.498 | Activity [6]: no |
| Br.Br.N=C(N)SCCN [2-(2-Aminoethyl)isothiourea dihydrobromide] | −1.251 | −1.251 | – | – | – | Activity [1]: no |
| C[N+](C)(C)CCC(=O)c1cccc2ccccc12.[I-] [2-(alpha-Naphthoyl)ethyltrimethylammonium iodide] | −6.762 | −6.762 | – | – | – | Activity [6]: yes |
| O=C[C@H](Cl)[C@@H](O)[C@H](O)[C@H](O)CO [2-Chloro-2-deoxy-D-glucose] | – | – | – | – | −2.364 | Z Score [11]: −2.364; Activity [6]: yes |
| Nc1nc(Cl)nc2c1ncn2[C@@H]1O[C@H](COP(=O)([O-])OP(=O)([O-])OP(=O)([O-])[O-])[C@@H](O)[C@H]1O.[Na+].[Na+].[Na+].[Na+] [2-Chloroadenosine triphosphate tetrasodium] | 1.149 | 1.149 | – | no | – | – |
| Nc1nc(Cl)nc2c1ncn2[C@@H]1O[C@H](CO)[C@@H](O)[C@H]1O [2-Chloroadenosine] | −0.396 | −0.396 | – | no | – | – |
| NCC(O)(CS(=O)(=O)O)c1ccc(Cl)cc1 (centres unmarked) [2-Hydroxysaclofen] | – | – | – | – | −1.624 | Z Score [11]: −1.624; Activity [6]: no |
| COc1ccc2[nH]c(I)c(CCNC(C)=O)c2c1 [2-Iodomelatonin] | – | – | −0.1348 | no | −0.135 | – |
| Cc1[nH]c2ccc(O)cc2c1CCN.O=C(O)/C=C\C(=O)O [2-Methyl-5-hydroxytryptamine maleate] | – | – | 0.5718 | – | 0.572 | Activity [6]: no |
| Nc1nc(Nc2ccccc2)nc2c1ncn2[C@@H]1O[C@H](CO)[C@@H](O)[C@H]1O [2-Phenylaminoadenosine] | 0.5728 | 0.573 | – | – | – | Activity [8]: no |

| SMILES | Z Score (168 h, 3 µM) | Z score (168 h, 3 µM) | Z Score | Activity [4] | Z score [5] | other results |
| --- | --- | --- | --- | --- | --- | --- |
| COc1cc2c(cc1O)CC[C@@H]1[C@@H]2CC[C@]2(C)[C@@H](O)CC[C@@H]12 [2-methoxyestradiol] | – | – | – | – | −0.983 | Z Score [9]: −0.9833; Activity [6]: no |
| Cc1cn([C@H]2C=C[C@@H](CO)O2)c(=O)[nH]c1=O [2′,3′-didehydro-3′-deoxythymidine] | – | – | – | no | – | Z Score [11]: −1.878; Z score [3]: −1.878 |
| Nc1ccn([C@H]2CC[C@@H](CO)O2)c(=O)n1 [2′,3′-dideoxycytidine] | – | – | – | – | −1.367 | Z Score [11]: −1.367; Activity [8]: no |
| O=c1oc(Cl)c(Cl)c2ccccc12 [3,4-Dichloroisocoumarin] | −1.12 | −1.120 | – | no | – | – |
| O=C(O)Cc1ccc(O)c(O)c1 [3,4-Dihydroxyphenylacetic acid] | – | – | −0.5832 | no | – | Z score [3]: −0.583 |
| O=[N+]([O-])c1cc(O)c(O)c([N+](=O)[O-])c1 [3,5-Dinitrocatechol] | – | – | −0.5294 | no | – | Z score [3]: −0.529 |
| C#CCn1c(=O)c2c(ncn2C)n(C)c1=O [3,7-Dimethyl-I-propargylxanthine] | – | – | 1.454 | no | – | Z score [3]: 1.454 |
| Fc1ccc(C(OCCCc2c[nH]cn2)c2ccc(F)cc2)cc1 [3-(1H-Imidazol-4-yl)propyl di(p-fluorophenyl)methyl ether] | – | – | – | no | −0.015 | – |
| NCCCS(=O)(=O)O.[Na] [3-Amino-1-propanesulfonic acid sodium] | – | – | – | – | −6.691 | Z Score [11]: −6.691; Activity [8]: yes |
| N#CCCN.N#CCCN.O=C(O)/C=C/C(=O)O [3-Aminopropionitrile fumarate] | – | – | 1.234 | – | – | Z score [10]: 1.234; Activity [1]: no |
| NCCCP(=O)(O)O [3-Aminopropylphosphonic acid] | – | – | −2.331 | – | −2.331 | Activity [8]: yes |
| O=[N+]([O-])c1cccc2c(Br)n[nH]c12 [3-Bromo-7-nitroindazole] | −1.68 | −1.680 | – | – | – | Activity [1]: no |
| Cl.Cl.NNCc1cccc(O)c1 [3-Hydroxybenzylhydrazine dihydrochloride] | – | – | −0.4866 | no | −0.487 | – |
| N[C@@H](Cc1ccc(O)c(I)c1)C(=O)O [3-Iodo-L-tyrosine] | −0.04844 | −0.048 | – | no | – | – |
| CC(C)Cn1c(=O)n(C)c(=O)c2[nH]cnc21 [3-Isobutyl-1-methylxanthine] | −0.774 | −0.774 | – | no | – | – |
| COc1ccc2c(c1)[C@@]13CCCC[C@H]1[C@@H](C2)NCC3.Cl [3-Methoxy-morphanin hydrochloride] | – | – | −7.714 | – | −7.714 | Activity [8]: yes |
| Cc1nnc2ccc(-c3cccc(C(F)(F)F)c3)nn12 [3-Methyl-6-(3-[trifluoromethyl]phenyl)-1,2,4-triazolo[4,3-b]pyridazine] | – | – | 0.09095 | – | 0.091 | Activity [6]: no |
| Cl.N=c1c[n+](N2CCOCC2)[n-]o1 [3-Morpholinosydnonimine hydrochloride] | −1.324 | −1.324 | – | – | – | Activity [6]: no |
| O=C(O)CC[N+](=O)[O-] [3-Nitropropionic acid] | – | – | −0.5631 | – | −0.563 | Activity [6]: no |
| Cl.NCC#Cc1ccccc1 [3-Phenylpropargylamine hydrochloride] | – | – | −2.043 | – | −2.043 | Activity [7]: no |
| CN1C2CCC1CC(OC(=O)c1cc(Cl)cc(Cl)c1)C2 (centres unmarked) [3-Tropanyl-3,5-dichlorobenzoate] | – | – | −9.272 | – | −9.272 | Activity [8]: yes |
| CN1[C@@H]2CC[C@H]1CC(OC(=O)c1c[nH]c3ccccc13)C2.Cl (some centres unmarked) [3-Tropanyl-indole-3-carboxylate hydrochloride] | – | – | −1.528 | – | – | Z score [10]: −1.528; Activity [1]: no |
| NC(=O)c1cccc(N)c1 [3-aminobenzamide] | – | – | −1.034 | – | −1.034 | Activity [7]: no |
| Nc1nccc2c1ncn2[C@@H]1O[C@H](CO)[C@@H](O)[C@H]1O [3-deazaadenosine] | – | – | – | no | – | Z Score (LOPAC library screen at 3 μM, MTT, secondary neurosphere cultures, screened in singlets): 1.77; Z score [3]: 1.770 |
| CCCn1c(=O)[nH]c(=O)c2[nH]cnc21 [3-n-Propylxanthine] | – | – | – | – | −1.094 | Z Score [9]: −1.094; Activity [6]: no |
| N/C(=N\C(=O)c1nc(Cl)c(N)nc1N)NCc1ccc(Cl)c(Cl)c1 [3′,4′-Dichlorobenzamil] | – | – | −2.581 | – | −2.581 | Activity [8]: yes |
